Measurements published in patent US12298315B2, “Systems and methods to identify and treat subjects at risk for obstetrical complications” (Wayne State University, priority 2014, dated 2025).

Key:
[1] = cited from earlier work
sVEGFR-1 = assay: Maternal plasma sVEGFR-1 concentration by immunoassay; format: in vivo, human; details: pravastatin 20 mg once daily since 17+4 weeks, one pregnant subject
Protocol: (§1) Sample collection and immunoassays. Blood was obtained by venipuncture and collected into tubes containing EDTA. Samples were centrifuged and stored at −70° C. Maternal plasma concentrations of sVEGFR-1, PIGF, and sEng were determined by sensitive and specific immunoassays (R&D Systems). The inter- and intra-assay coefficients of variation (CV) were: 1.4% and 3.9% for sVEGFR-1, 2.3% and 4.6% for sEng, and 6.02% and 4.8%, respectively, for PIGF. The sensitivity of the assays was 16.97 […], 0.08 ng/ml for sEng, and 9.52 […]. The laboratory personnel performing the assays were blinded to the clinical information.
(§2) Sample Collection and Immunoassays. Blood was obtained by venipuncture and collected into tubes containing EDTA at enrollment and every four weeks until the 24th week of gestation, as well as bi-weekly thereafter until delivery. Samples were centrifuged and stored at −70° C. Maternal plasma concentrations of sVEGFR-1, PIGF, and sEng were determined by immunoassays. The inter- and intra-assay coefficients of variation (CV) of the assays were: 1.4% and 3.9% for sVEGFR-1, 2.3% and 4.6% for sEng, and 6.02% and 4.8%, respectively, for PIGF. The sensitivities of the assays were 16.97 […], 0.08 ng/ml for sEng, and 9.52 […]. Laboratory personnel performing the assays were blinded to the clinical information.
(§3) The subject received subcutaneous 5000 units of heparin twice a day, 81 mg aspirin tablet daily, and IVIG 1 mg/kg every four weeks from the beginning of the current pregnancy. At 12 weeks and 2 days gestation, maternal PAPP-A concentration was low (1st percentile). […] However, bilateral UtA notching (mean UtA PI 2.23 (95th percentile)) was noted, and the plasma angiogenic/anti-angiogenic factor ratio concentrations were low. At 13, 15, and 17 weeks of gestation, plasma concentrations of sVEGFR-1 and sEng were extremely high (96th-98th percentile; see Table 9 and FIGS. 8A and 8C)), and those of PIGF were within normal limits (59th-62nd percentile; Table 9, FIG. 8B). The PIGF/sVEGFR-1 concentration ratios were low, in the 4th, 6th, and 10th percentiles, respectively (see FIG. 8D).
(§4) The subject was informed of these findings, of the poor prognosis associated with extremely high plasma sVEGFR-1 concentrations, and of the likelihood that this pregnancy, like their previous one, could be affected by MF. After being counseled extensively about the potential adverse events and issues of safety of pravastatin administration during pregnancy, and informed that there was little evidence from animal experiments that pravastatin could reverse angiogenic/anti-angiogenic factor imbalances, the subject was offered and opted to receive pravastatin 20 milligrams once daily at 17 weeks and 4 days of gestation. At 21 weeks of gestation, the plasma concentrations of sVEGFR-1 decreased to the normal range (56th percentile) while that of PIGF increased to 93rd percentile. Plasma sEng remained high, at the 94th percentile.
(§5) Sample Collection and Immunoassays. Venipuncture was performed serially at regular prenatal visits and admissions to the hospital for all normal and MPFD affected pregnancies. Blood was collected into tubes containing EDTA. Samples were centrifuged and stored at −70° C. until used for assay. Sensitive and specific immunoassays (R&D systems, Minneapolis, MN) were used to determine maternal plasma concentrations of PIGF, sEng, sVEGFR-1 and -2. All immunoassays utilized the quantitative sandwich enzyme immunoassay technique, and their concentrations in maternal plasma were determined by interpolation from the standard curves. The inter- and intra-assay coefficients of variation (CV) obtained in the laboratory were as follows: PIGF, 6.02 and 4.8%, respectively; s-Eng, 2.3 and 4.6%, respectively; sVEGFR-1, 1.4 and 3.9%, respectively; and sVEGFR-2, 2 and 4%, respectively. […]

PIGF = assay: Maternal plasma PIGF concentration by immunoassay; format: in vivo, human; details: pravastatin 20 mg once daily since 17+4 weeks, one pregnant subject
Protocol: as §1, §2, §3, §4, §5

sEng = assay: Maternal plasma sEng concentration by immunoassay; format: in vivo, human; details: pravastatin 20 mg once daily since 17+4 weeks, one pregnant subject
Protocol: as §1, §2, §3, §4, §5

PIGF/sVEGFR-1 = assay: Maternal plasma PIGF/sVEGFR-1 concentration ratio; format: in vivo, human; details: pravastatin 20 mg once daily since 17+4 weeks, one pregnant subject
Protocol: as §1
Quantile regression was used to calculate median analyte ratio concentrations (PIGF/sVEGFR-1, PIGF/sEng) conditional upon GA among uncomplicated pregnancies (n=886). MoM values were calculated for both analyte ratios for each subject. MoM cutoffs were calculated based on inspection of receiver operating characteristic (ROC) curves calculated for each outcome (stillbirth, late PE, severe late PE, and SGA without PE). Prognostic logistic regression models were constructed for each outcome, including the MoM cutoff and clinical risk factors. Covariables included in adjusted models were selected based on clinical knowledge. Model reduction was performed additionally based on the plausibility of regression coefficients, association with independent variables and the magnitude of change in the main effect parameter estimates. To account for potential model over-fitting, when van Houwelingen and le Cessie's heuristic shrinkage estimator fell below 0.85 (indicator of instability), bootstrap estimated linear shrinkage factors and Firth's penalized maximum likelihood estimation were used to calculate conservative estimates less likely to be affected by over-fitting.
Statistical Analysis. Proportions and 95% CI or medians and interquartile ranges were calculated for categorical and arithmetic variables. Pearson correlation coefficients were used to characterize bivariate relation among arithmetic variables. Quantile regression models were fitted to estimate expected medians of biochemical analyte concentrations and Doppler velocimetry PI as a function of gestational week at examination for women with uncomplicated term pregnancies. MoM were calculated for each biomarker (biochemical and sonographic) for each subject. […]

[2] = cited from earlier work; remark: listed apart in the source
[3] = dually perfused term human placental lobule

## CC[C@H](C)C(=O)O[C@H]1C[C@@H](C)C=C2C=C[C@H](C)[C@H](CC[C@@H]3C[C@@H](O)CC(=O)O3)[C@H]21 [lovastatin, Lovastatin]
[1]; subjects with an early exposure to these drugs
  Adverse pregnancy outcomes, post marketing surveillance: has not found any adverse pregnancy outcomes

## CC[C@H](C)C(=O)O[C@H]1C[C@H](O)C=C2C=C[C@H](C)[C@H](CC[C@@H](O)C[C@@H](O)CC(=O)O)[C@H]21 [pravastatin, Pravastatin]
sVEGFR-1; GA 19+5 weeks
  Plasma concentration of sVEGFR-1: 4148 pg/mL
sVEGFR-1; GA 21+6 weeks
  Plasma concentration of sVEGFR-1: 1889 pg/mL
sVEGFR-1; GA 25+3 weeks
  Plasma concentration of sVEGFR-1: 2854 pg/mL
sVEGFR-1; GA 27+4 weeks
  Plasma concentration of sVEGFR-1: 3881 pg/mL
  Plasma sVEGFR-1, percentile for GA: (90) percentile
sVEGFR-1; GA 29+4 weeks
  Plasma concentration of sVEGFR-1: 4684 pg/mL
  Plasma sVEGFR-1, percentile for GA: (93) percentile
sVEGFR-1; GA 31+4 weeks
  Plasma concentration of sVEGFR-1: 6370 pg/mL
  Plasma sVEGFR-1, percentile for GA: (97) percentile
sVEGFR-1; GA 33+5 weeks
  Plasma concentration of sVEGFR-1: 11202 pg/mL
PIGF; GA 19+5 weeks
  Plasma concentration of PIGF: 306 pg/mL
PIGF; GA 21+6 weeks
  Plasma concentration of PIGF: 644 pg/mL
PIGF; GA 25+3 weeks
  Plasma concentration of PIGF: 768 pg/mL
PIGF; GA 27+4 weeks
  Plasma PIGF, percentile for GA: (74) percentile
  Plasma concentration of PIGF: 869 pg/mL
PIGF; GA 29+4 weeks
  Plasma PIGF, percentile for GA: (65) percentile
  Plasma concentration of PIGF: 821 pg/mL
PIGF; GA 31+4 weeks
  Plasma PIGF, percentile for GA: (44) percentile
  Plasma concentration of PIGF: 536 pg/mL
PIGF; GA 33+5 weeks
  Plasma concentration of PIGF: 528 pg/mL
sEng; GA 19+5 weeks
  Plasma concentration of sEng: 13.1 ng/mL
  Plasma sEng, percentile for GA: (98) percentile
sEng; GA 21+6 weeks
  Plasma concentration of sEng: 8.7 ng/mL
sEng; GA 25+3 weeks
  Plasma concentration of sEng: 8.8 ng/mL
  Plasma sEng, percentile for GA: (94) percentile
sEng; GA 27+4 weeks
  Plasma concentration of sEng: 9.9 ng/mL
  Plasma sEng, percentile for GA: (95) percentile
sEng; GA 29+4 weeks
  Plasma concentration of sEng: 12.7 ng/mL
  Plasma sEng, percentile for GA: (97) percentile
sEng; GA 31+4 weeks
  Plasma concentration of sEng: 9.6 ng/mL
  Plasma sEng, percentile for GA: (85) percentile
sEng; GA 33+5 weeks
  Plasma concentration of sEng: 12.7 ng/mL
  Plasma sEng, percentile for GA: (85) percentile
PIGF/sVEGFR-1; GA 19+5 weeks
  PIGF/sVEGFR-1 concentration ratio: 0.07
  PIGF/sVEGFR-1 ratio, percentile for GA: (23) percentile
PIGF/sVEGFR-1; GA 21+6 weeks
  PIGF/sVEGFR-1 concentration ratio: 0.34
  PIGF/sVEGFR-1 ratio, percentile for GA: (90) percentile
PIGF/sVEGFR-1; GA 25+3 weeks
  PIGF/sVEGFR-1 concentration ratio: 0.27
  PIGF/sVEGFR-1 ratio, percentile for GA: (51) percentile
PIGF/sVEGFR-1; GA 27+4 weeks
  PIGF/sVEGFR-1 concentration ratio: 0.22
  PIGF/sVEGFR-1 ratio, percentile for GA: (34) percentile
PIGF/sVEGFR-1; GA 29+4 weeks
  PIGF/sVEGFR-1 concentration ratio: 0.18
  PIGF/sVEGFR-1 ratio, percentile for GA: (25) percentile
PIGF/sVEGFR-1; GA 31+4 weeks
  PIGF/sVEGFR-1 concentration ratio: 0.08
  PIGF/sVEGFR-1 ratio, percentile for GA: (10) percentile
PIGF/sVEGFR-1; GA 33+5 weeks
  PIGF/sVEGFR-1 concentration ratio: 0.04
  PIGF/sVEGFR-1 ratio, percentile for GA: (6) percentile
[2]; [3]
  Pravastatin remained in the maternal circuit: 68%
  Pravastatin retained by the placental tissue: 14%
  Pravastatin transferred to the fetal circuit: 18%
[2]; fetal to maternal versus maternal to fetal compartment
  Direction of placental transfer: higher transfer of pravastatin from the fetal to the maternal compartment than the reverse
[1]; humans, exposure during pregnancy
  Abnormal pregnancy outcomes following exposure: abnormal pregnancy outcomes were not reported
